The record followed here is patent US20220265591A1, “USE OF AN OSMOLYTE IN MANUFACTURE OF A MEDICAMENT FOR TREATMENT OF OCULAR DISORDERS” (SINGAPORE HEALTH SERVICES PTELTD, priority 2019, published 2022).

Each structure is given as a SMILES string. Read-outs that look alike come from different tables or passages of the source.

In experiment [1] the target is T1, TGFBIp611-633 G623R peptide (Homo sapiens, UniProt Q15582, G623R).
T1 construct: The 23-amino acid long peptide (TGFBIp 611-633 c.623 G>R) from the 4th FAS1 domain; purchased Synpeptide Co Ltd, Shanghai, China; host or cells: synthetic peptide
T1 sequence (Q15582 611-633 G623R limits assumed): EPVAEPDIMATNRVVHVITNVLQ
Put plainly: ThT fluorescence assay, inhibition of amyloid fibrillation. Format: biochemical. Particulars: for inhibition at 200000 µM: 200 mM. As for the experimental part: The 23-amino acid long peptide (TGFBIp 611-633 c.623 G>R) from the 4th FAS1 domain of TGFBIp with the substitution, G623→R ([…]) that rapidly formed amyloid fibrils was used in this study. The peptide was dissolved (0.6 mg/ml) in PBS and allowed to form amyloid fibrils in 50 ml Falcon tubes in a shaking incubator at 37° C. and 180 rpm with and without the addition of osmolytes. […] The TGFBIp^611-633 G623R peptide incubated with PBS was used as a control.
The peptide samples collected at various time points above were treated with 30 μM Thioflavin T (ThT) (Sigma-Aldrich Inc., MO, USA) in PBS buffer at pH 5.5 in a 96-well microplate (Greiner Bio-One, Frickenhausen, Germany) for ThT fluorescence assay. The microplate was excited at 445 nm and the resulting emission fluorescence at 485 nm was measured using a microplate reader (Tecan Infinite M200 Pro, CA, USA).
Percentage inhibition for each osmolyte treatment was calculated by subtracting the baseline fluorescent intensity without the peptides and compounds from the observed fluorescent intensity of each treatment well. The fluorescent intensities per osmolyte treatment were normalized against the untreated fluorescent intensity per time point and expressed as a percentage.
The TGFBIp^611-633 G623R peptides were treated with 200 mM and 320 mM of taurine for up to 72 hours, respectively, the results of which are illustrated in FIG. 11. The TGFBIp^611-633 N622K peptides were treated with 200 mM and 320 mM of taurine for up to 240 hours, respectively, the results of which are illustrated in FIG. 12. The peptides incubated with PBS were used as controls.
The peptide samples were collected at 24 h, 48 h and 72 h after treatment for TGFBIp^611-633 G623R peptides and at 120 h, 144 h and […] after treatment for the TGFBIp^611-633 N622K peptides. The samples were then treated with 30 μM ThT in PBS buffer at pH 5.5 in a 96-well microplate for ThT fluorescence assay. The microplate was excited at 445 nm and the resulting emission fluorescence at 485 nm was measured using a microplate reader.

For experiment [2], the target named is T2, preformed amyloid fibrils from TGFBIp611-633 G623R peptide (Homo sapiens, UniProt Q15582, G623R).
T2 construct: The 23-amino acid long peptide (TGFBIp 611-633 c.623 G>R) from the 4th FAS1 domain; purchased Synpeptide Co Ltd, Shanghai, China; host or cells: synthetic peptide
Kind of experiment: ThT fluorescence assay, dissolution of preformed amyloid fibrils. The settings on record: for inhibition at 200000 µM: preformed fibrils, read-out: % Inhibition (mean ± SD) n = 3, dissolution of amyloid fibrils, ThT fluorescence; for % Dissolution at final time point, ThT: TGFBIp-G623R preformed fibrils. Format: biochemical. The method, then:
The TGFBIp^611-633 G623R peptides were incubated in PBS for 24 hours, allowed to form uniform amyloid fibrils. The TGFBIp^611-633 G623R peptide solution was then subjected to Circular Dichroism spectroscopy to confirm the formation of amyloid fibrils.
The preformed amyloid fibril solution incubated with PBS was used as a control.
The peptide samples collected at the various time points above were treated with 30 μM ThT in PBS buffer at pH 5.5 in a 96-well microplate for ThT fluorescence assay. The microplate was excited at […] and the resulting emission fluorescence at 485 nm was measured using a microplate reader (Tecan Infinite M200 Pro, CA, USA).
The preformed amyloid fibrils were treated with taurine at a concentration of 200 mM and 320 mM for up to 72 hours, respectively. The preformed amyloid fibrils incubated with PBS were used as controls.
The samples were collected at 24 h, 48 h and 72 h after treatment for the TGFBIp^611-633 G623R peptides, and at 24 h, 48 h, 96 h and 144 h after treatment for the TGFBIp^611-633 N622K peptides. The samples were then treated with 30 μM ThT in PBS buffer at pH 5.5 in a 96-well microplate for ThT fluorescence assay. The microplate was excited at 445 nm and the resulting emission fluorescence at 485 nm was measured using a microplate reader.

The target of experiment [3] is T2, preformed amyloid fibrils from TGFBIp611-633 G623R peptide. Put plainly: Circular Dichroism assay (θ[218]), disaggregation of preformed amyloid fibrils. The experiment is classed as biochemical. The settings on record: for inhibition at 200000 µM / disruption of the β-sheet structure compared among the four osmolytes, CD: preformed fibrils; for inhibition at 200000 µM: read-out: % Inhibition (mean ± SD) n = 3, θ[218] of preformed amyloid fibrils, circular dichroism; for % Dissolution at final time point, CD: TGFBIp-G623R preformed fibrils, listed as taurine. The method, then: Circular Dichroism (CD) spectroscopy was performed to study the disaggregation of the preformed amyloid fibrils. […] The treatment solutions were studied by far UV-CD assay.
Circular Dichroism (CD) spectroscopy was performed to study the disaggregation of the preformed amyloid fibrils. The preformed amyloid fibrils were treated with taurine at a concentration of 200 mM and 320 mM in PBS buffer at pH 7.0 for 24 h, 48 h and 72 respectively. The treatment solutions were studied by far UV-CD assay.
Background: Circular dichroism is widely used to follow secondary structure.

The target of experiment [4] is T3, TGFBIp 611-633 c.623 G>R fibrils (Homo sapiens, UniProt Q15582, G623R).
T3 construct: The 23-amino acid long peptide (TGFBIp 611-633 c.623 G>R) from the 4th FAS1 domain; purchased Synpeptide Co Ltd, Shanghai, China; host or cells: synthetic peptide
Put plainly: Transmission Electron Microscopy of preformed fibrils. The settings on record: 72 hours treatment. As for the experimental part: The disaggregation of preformed amyloid fibrils was also verified by TEM analysis as illustrated in FIG. 8B. Morphological analysis of the TGFBIp 611-633 c.623 G>R fibrils before and after treatment with osmolytes for 72 hours was investigated by Transmission electron microscopy (TEM) with a JEOL JEM-1010 transmission electron microscope using Digital Micrograph™ 1.81.78 for GMS 1.8.0 (Gatan, Pleasanton, Calif.) at the Singhealth-core Electron Microscopy facility. 10 μl of amyloid fibril samples with and without osmolyte treatment were applied onto Formvar-carbon coated 300-mesh-size nickel grids. The samples were stained with Uranyl acetate solution, washed, dried, and observed at magnifications 8000-50000× at 80 kV.

Setting [5] is: 24 h, read-out: % Inhibition (mean ± SD) n = 3, ThT fluorescence.
The mark [6] stands for this setting: 48 h, read-out: % Inhibition (mean ± SD) n = 3, ThT fluorescence.
Where [7] appears, read: 72 h, read-out: % Inhibition (mean ± SD) n = 3, ThT fluorescence.
The mark [8] stands for this setting: TGFBIp-G623R, 320 mM, final time point.

One may read the inhibition as the relative decrease from the control value, in per cent. Usually % Inhibition stands for the drop in the measured response relative to a control, in per cent. A low value points to little suppression. Regarding `NCCS(=O)(=O)O` [Taurine, taurine], the inhibition at 200000 µM in experiment [1] (setting [5]) was found to be 20 ± 6%; in experiment [1] (setting [6]), 34 ± 5%; in experiment [1] (setting [7]), 48%; in experiment [1] (TGFBIp-G623R, final time point, read-out: % Inhibition at final time point, ThT), 41%; in experiment [2] (200 mM, 24 h) it was 23 ± 1%; in experiment [2] (200 mM, 48 h) it was 52 ± 5%. Besides, the inhibition at 200000 µM in experiment [2] (200 mM, 72 h) was 61%; in experiment [3] (200 mM, 24 h), 13 ± 6%; in experiment [3] (200 mM, 48 h), 40 ± 12%; in experiment [3] (200 mM, 72 h), ~54%. For the same compound, the “% Inhibition at final time point, ThT” value in experiment [1] (setting [8]) amounted to 60%. In experiment [1] (setting [8]), this compound gave an inhibition at 320000 µM of 61%. In addition, the “% Dissolution at final time point, ThT” value was 63% in experiment [2] (200 mM); 64% in experiment [2] (200 mM, listed as taurine); 83% in experiment [2] (320 mM); 83% in experiment [2] (320 mM, listed as taurine). Further, the “disruption of the β-sheet structure compared among the four osmolytes, CD” value in experiment [3] (200 mM) was “highest disruption of the β-sheet structure”. The “% Dissolution at final time point, CD” value amounted to 49% in experiment [3] (200 mM) and 69% in experiment [3] (320 mM). Besides, the “TEM morphology of fibrils” value in experiment [4] was “reduction in density of ordered amyloid fibrils was evident”.
For the compound `OC[C@H]1O[C@H](OC[C@H]2O[C@H](O[C@]3(CO)O[C@H](CO)[C@@H](O)[C@@H]3O)[C@H](O)[C@@H](O)[C@@H]2O)[C@H](O)[C@@H](O)[C@H]1O` [Raffinose, raffinose], the inhibition at 200000 µM in experiment [1] (setting [5]) turned out to be 21 ± 6%; in experiment [1] (setting [6]), 32 ± 2%; in experiment [1] (setting [7]) it was 65%; in experiment [2] (200 mM, 24 h) it was 14 ± 4%; in experiment [2] (200 mM, 48 h), 48 ± 6%; in experiment [2] (200 mM, 72 h), 64%. The inhibition at 200000 µM is 7 ± 7% in experiment [3] (200 mM, 24 h); 48 ± 9% in experiment [3] (200 mM, 48 h); ~58% in experiment [3] (200 mM, 72 h). In addition, the “disruption of the β-sheet structure compared among the four osmolytes, CD” value in experiment [3] (200 mM) was “highest disruption of the β-sheet structure”. Further, the “TEM morphology of fibrils” value in experiment [4] was “reduction in density of ordered amyloid fibrils was evident”.
Regarding `CNCC(=O)O` [Sarcosine, sarcosine], the inhibition at 200000 µM in experiment [1] (setting [5]) was determined as 20 ± 3%; in experiment [1] (setting [6]), 32 ± 2%; in experiment [1] (setting [7]) it was 56%; in experiment [2] (200 mM, 24 h), 24 ± 3%; in experiment [2] (200 mM, 48 h), 47 ± 4%; in experiment [2] (200 mM, 72 h), 53 ± 3%. The inhibition at 200000 µM in experiment [3] (200 mM, 24 h) was found to be 12 ± 8%; in experiment [3] (200 mM, 48 h) it was 39 ± 6%; in experiment [3] (200 mM, 72 h), 41%. Besides, the “TEM morphology of fibrils” value in experiment [4] is “reduction in density of ordered amyloid fibrils was evident”.
Regarding `C[N+](C)(C)CC(=O)O` [Betaine, betaine], the inhibition at 200000 µM in experiment [1] (setting [5]) was found to be 16 ± 3%; in experiment [1] (setting [6]), 26 ± 3%; in experiment [1] (setting [7]), 44%; in experiment [2] (200 mM, 24 h), 4 ± 3%; in experiment [2] (200 mM, 48 h) it was 34 ± 11%; in experiment [2] (200 mM, 72 h), 37 ± 17%. Moreover, the inhibition at 200000 µM amounted to 6 ± 1% in experiment [3] (200 mM, 24 h); 24 ± 11% in experiment [3] (200 mM, 48 h); 36% in experiment [3] (200 mM, 72 h). For the same compound, the “TEM morphology of fibrils” value in experiment [4] is “reduction in density of ordered amyloid fibrils was evident”.
